# Test results from patent US20050170052A1, “Water and feed preservative for animal uses” (priority 2004, published 2005).
# Like-named read-outs stand apart in the source and are kept apart here.
# How the values were obtained:
# E. coli [1] = test: Biocidal effect of terpenes in organic preservative-free apple juice (Example 7); assay type: cell-based; conditions: 250 ppm in unpasteurized apple juice, E. coli added, one week room temperature
# Method: To 100 ml of unpasteurized apple juice was added different concentration of terpenes varying from 0 to 250 ppm. After mixing, 0.5 ml of 1×10^6 cfu E. coli was added to each juice/terpene mixture and incubated at room temperature for a week. After incubation, 0.1 ml of each of the solutions was plated onto nutrient agar and incubated for 18 hours at 37° C. Results are expressed as cfu/ml and percent reduction as compared to control.
# [2] = assay type: physicochemical; conditions: buffer, 1000 ppm
# Method: (§1) A solution containing 1000 ppm citral in distilled water was homogenized with a high speed homogenizer. This solution was stored in a beaker covered with porous paper for a week. The concentration of citral remaining after a week was determined by a gas chromatography. A standard curve was prepared with reagent grade citral to which b-ionone was used as internal standard. At the beginning of the study and after a week the concentration of citral was determined by plotting it on the standard curve.
# [3] = assay type: physicochemical; conditions: buffer, 1000 ppm; remark: listed apart in the source
# Method: as §1, with “closed glass bottle” for “beaker covered with porous paper”, “four weeks. Concentration” for “a week. The concentration”, “remaining” for “remaining after a week”, “weekly” for “after a week”
# E. coli [4] = conditions: cited from earlier work
Compound,% reduction (E. coli [1]) [%],cfu/ml (E. coli [1]) [cfu/ml],"Percentage of citral remaining, Week 1 ([2]; 1 week) [%]","Percentage of citral remaining, Day 1 ([2]; 1 day) [%]","Percentage of citral remaining, Week 1 ([3]; 1 week) [%]","Percentage of citral remaining, Week 2 ([3]; 2 week) [%]","Percentage of citral remaining, Week 4 ([3]; 4 week) [%]","Percentage of citral remaining, Day 1 ([3]; 1 day) [%]",citral concentration in growth media that reduced the concentration of E. coli (E. coli [4]),citral concentration with bactericidal effect (E. coli [4]; growth media) [%]
CC(=O)/C=C/C1=C(C)CCCC1(C)C [B-ionone],100,0,,,,,,,,
"CC(C)=CCCC(C)=CC=O [Citral, citral]",100,0,21.5,100,32,27,22,100,more than 0.01%,0.08
